These are literature values, as cited in patent US20120219597A1, “PHARMACEUTICAL FORMULATIONS FOR INDIBULIN” (ZIOPHARM Oncology, Inc., priority 2009, published 2012).

For data set [1] the following is noted: pure indibulin.
The conditions of data set [2]: in water, methanol, ethanol or 2-propanol.

Consider `O=C(Nc1ccncc1)C(=O)c1cn(Cc2ccc(Cl)cc2)c2ccccc12` [indibulin], for which the bioavailability result in data set [1] is on record as “low”. Moreover, the solubility entry in data set [2] is listed as “practically insoluble”.
